Measured values from patent publication EP0187551A1, “Pyrazolo[4,3-c]cinnolin-3-one derivatives, their salts, preparation process, use as medicaments, compositions containing them and intermediate products” (ROUSSEL-UCLAF, priority 1985, dated 1986).

Experiments:
[1] = system: rats; experiment: Four-plate test (test des 4 plaques), rats; format: in vivo; settings: 20 mg/Kg per os, 1/2 h after administration
Experimental: (§1) L'appareil (Apelab) et le protocole utilisés ont été décrits par BOISSIER et coll. (European J. Pharmacol. 1968, 4, 145). Les plaques sont reliées à un stimulateur (U. Sachs, Roucaire) qui permet de délivrer des chocs électriques de 120 volts pendant 0,5 s. Les essais sont réalisés sur des lots de 10 souris ou rats 1/2 h après administration per os du composé étudié. Chaque animal est déposé individuellement sur l'appareil. Après 15s d'exploration libre , il est soumis à un choc électrique chaque fois qu'il passe d'une plaque à l'autre, un minimum de 3 secondes étant observé entre deux chocs. Le nombre de chocs délivrés est compté pendant 1 minute. Les résultats obtenus sont comparés à ceux observés chez des animaux témoins par un test de Dunnett.

[2] = system: souris; experiment: Four-plate test (test des 4 plaques), mice; format: in vivo; settings: 1/2 h after administration
Experimental: as §1

[3] = system: rats; experiment: Staircase test (test de l'escalier); format: in vivo; settings: 20 mg/Kg, 1 h after administration, counted for 3 min
Description: L'appareil et le protocole utilisés ont été décrits par THIEBOT et coll. (Psychopharmacologia (Berlin) 1973, 31, 77).
L'expérimentation est réalisée sur des lots de 15 rats naifs. Les animaux sont déposés individuellement dans l'enceinte 1 heure après l'administration du composé étudié. Le nombre de redressements effectués et le nombre de marches montées sont comptés pendant 3 mn.

[4] = biological target: récepteurs des benzodiazépines; experiment: Affinity for benzodiazepine receptors (displacement of 3H diazepam, rat cortex membranes); parameters: species or system rats; settings: concentration inhibiting 50 % of specific 3H diazepam (10^-9M) binding, 30 min at 0°C, read-out: CI 50 (the source's name)
Experimental: 1) Affinité pour les récepteurs des benzodiazépines.
On homogénéise au vingtième (poids/volume) dans le sucrose 0,32M, les cortex prélevés sur des cerveaux de rats mâles pesant 150 g en moyenne.
Après centrifugation de l'homogénat à 1000 g pendant 10 minutes à 0°C, le surnageant est centrifugé à 30 000 g pendant 20 minutes à +4"C. Le culot est mis en suspension dans 20 volumes de tampon Tris Hcl 50mM pH 7,4 et centrifugé à 30 000 g pendant 20 minutes à +4°c. Le nouveau culot obtenu est mis en suspension dans 50 ml de tampon Krebs Tris HCl pH 7,4.
On fait ensuite incuber pendant 30 minutes à 0°C, 2 ml de suspension en présence de ^3H diazepam à la concentration 10-^9M, seul, avec des concentrations croissantes du produit à tester, ou, pour déterminer la fixation non spécifique, avec du diazepam non radioactif à la concentration 10^-6M.
Les suspensions incubées sont filtrées sur Whatman GF/C et les filtres sont lavés par deux fois 5 ml de tampon Krebs Tris HCl pH 7,4 à 0°C.
La radioactivité des filtres est mesurée par scintillation liquide.
L'activité du produit est exprimée en C. I. 50 : concentration inhibant 50 % de la liaison spécifique de ^3H diazepam déterminée graphiquement.

O=c1c2n[nH]c3ccc(Cl)cc3c-2nn1-c1ccccc1 [Exemple 1, 8-chloro-2,5-dihydro-2-phényl 3H-pyrazolo/4,3-c/ cinnolin-3-one]
augmentation du nombre de chocs délivrés [1]: 41%
augmentation du nombre de chocs délivrés ([2]; 20 mg/Kg per os): 63%
diminution du nombre de redressements [3]: 46%
nombre de marches montées [3]: sans modification notable
IC50 [4]: 1.4 nM

O=c1c2n[nH]c3ccccc3c-2nn1-c1ccccc1 [Exemple 3, 2,5-dihydro-2-phényl 3H-pyrazolo/4,3-c/ cinnolin-3-one]
augmentation du nombre de chocs ([2]; 50 mg/kg per os): 50%

O=c1c2n[nH]c3ccccc3c-2nn1-c1ccccn1 [Exemple 8, Chlorhydrate du 2,5-dihydro-(2-pyridin-2-yl) 3H-pyrazolo /4,3-c/ cinnolin-3-one]
augmentation du nombre de chocs ([2]; 100 mg/kg per os): 50%
